System: replication of HIV-1 in the infected MT-4 cells (endogenous RT)
Experiment: Endogenous RT activity in culture fluid of HIV-1 infected MT-4 cells (HS-Lenti RT activity kit)
Assay type: cell-based, HIV-1 subtype B
Conditions: for inhibition at 0.1 µM: 0.0001 mM; for inhibition at 5 µM: 0.005 mM; for inhibition at 10 µM: 0.01 mM
Procedure: Furthermore, antiviral activity of compound 1 was studied on reverse transcriptase (RT) activity to elucidate potential mechanism of its antiviral action. This was done by using MT-4 cell line which […] with HIV-1. Source of HIV-1 culture fluid was chronically infected and producing HIV-1 subtype B cell line H9/HTLV III B.
Reverse transcriptase (RT) activity was determined: • (a) in the culture fluid of infected HIV-1 MT-4 cells at 72 hours after their infection (viral control); • (b) in the culture fluid of non-infected with HIV-1 cells at 72 hours and culturing without the addition of any substance (cell control); and • (c) in the culture fluid infected with HIV-1 MT-4 cells at 72 hours after infecting them, in which the desired concentration of the test compound 1 or the control compound 2 to the growth medium was added.
RT activity was determined according to the instructions of the producer. Separately was reported RT activity of standard recombinant reverse transcriptase (rRT), available in every kit. It was prepared 12-fold dilutions of the standard rRT. The manufacturer provides data on the amount of rRT in pg/well and pg/ml for each 12-fold dilution. The method used represents colorimetric method for non-radioactive determination of RT activity. It includes two stages: • (1) the synthesis of reverse transcript at the 3- or 24-hours incubation at 33° C. (which was determined experimentally); and • (2) quantitative determination of the resulting product.
In the synthesis of DNA using bromine deoxyuridine triphosphate (Brd UTP), which enter into the composition of the reaction mixture. It is included in the structure of the matrix/primer making up the DNA chain. Determination of incorporated Brd UTP was done by tracer-antibody Brd UTP, conjugated to the enzyme alkaline phosphatase. Followed colorimetrically determining the absorbance at A405 nm, which is proportional to the RT activity in the sample. According to the manufacturer, RT activity was considered positive when A405 values for the sample exceeded at least 2 times the values of A405 for negative control. Otherwise the sample was reported as such lacking RT activity, i.e. negative. The test was done by comparing the RT activity in the virus controls (100%) reported with viral RT activity in the wells treated with the test substance in the different concentrations in strict absence of RT activity in control cells. Percent inhibition of replication using the RT test was expressed as the difference between 100% (positive viral control without inhibitor) and % reported RT activity in the wells treated with the inhibitor (compounds 1 or 2) at various concentrations.
The measurement of RT activity is a widespread method for the quantitative determination of retroviruses replication. In the experimental set-up, primarily endogenous activity in supernatants was measured, i.e. in the culture fluid of virus infected cells and treated/untreated with inhibitor at 72 hours after cultivation.
For the control, commonly used substance with proven antiviral activity was employed; in our case, we used Kivexa, which contains 600 mg Abacavir and 300 mg of Lamivudine, which is applied in clinical practice as nucleoside inhibitor of RT. In the presence of RT inhibition in the test, it is concluded that not only the replication of the virus is inhibited, but also probably the target of the inhibitory effect is RT itself. To confirm this conclusion, it is necessary that percentage (%) of inhibition of the RT coincides with the % inhibition in the microtiter MTT assay. […] Reaction mixture supplemented with inhibitor was prepared at desired concentration for the assay, and then, to the mixture, recombinant RT was added with a known activity and concentration. After incubation, we determined whether the activity of the enzyme shall be amended (inhibited) by action of the compounds 1 or 2. […]

[1] = Human immunodeficiency virus 1, MT4, endogenous RT in culture liquid

SMILES | inhibition at 0.1 µM [1] [%] | inhibition at 1 µM (Human immunodeficiency virus 1, MT4, endogenous RT in culture liquid, 0.001 mM) [%] | inhibition at 5 µM [1] [%] | inhibition at 10 µM [1] [%] | inhibition at 0.001 µM (Human immunodeficiency virus 1, MT4, endogenous RT in culture liquid, 0.000001 mM) [%] | inhibition at 0.01 µM (Human immunodeficiency virus 1, MT4, endogenous RT in culture liquid, 0.00001 mM) [%] | inhibition of HIV-1 infectivity in MT-4 cells (Table 4) [%]
O=c1oc2cc(O)c(O)cc2c(O)c1-c1coc2c1c(=O)oc1cc(O)c(O)cc12 [Compound 2, 7,8-dihydroxy-3-(4,6,7-trihydroxy-2-oxo-2H-chromen-3-yl)-4H-furo[3,2-c]chromen-4-one, reference compound] | 0 | 25.7 | 51 | 56.3 |  |  | 
O=c1oc2cc(O)cc(O)c2c(O)c1-c1coc2c1c(=O)oc1cc(O)cc(O)c12 [Compound 1, 7,9-dihydroxy-3-(4,5,7-trihydroxy-2-oxo-2H-chromene-3-yl)-4H-furo[3,2-c]chromen-4-one] | 55 |  | 76.6 | 89 | 1.3 | 50.7 | > 89
